Assays:
[1] = system: AH272 hepatoma; assay: AH272 hepatoma, survival (Experimental Example 8); type: in vivo, male Donryu rats; details: once daily from third to sixth day, control 7.9 days
Experimental: A plurality of groups each consisting of six male Donryu rats (7-8 weeks old) were implanted with 2 x 10^6 cells of AH272 hepatoma. After the implantation, Y-6430 dissolved in physiological saline was administered intraperitoneally once daily within the period from the third to sixth day, and the average survival days were calculated, the result being shown in Table 9.
All the test animals were dead within 30 days.

[2] = system: Ehrlich carcinoma; assay: Ehrlich carcinoma implanted intraperitoneally, survival (Experimental Example 6); type: in vivo, male ICR mice; details: once daily for seven days
Experimental: A plurality of groups each consisting of six male ICR mice (7-8 weeks old) were implanted intraperitoneally with 2 x 10^6 Ehrlich carcinoma. After 24 hours, Y-6430 dissolved in physiological saline was administered intraperitoneally once daily for seven days.

[3] = system: sarcoma 180; assay: Sarcoma 180 implanted intraperitoneally, survival (Experimental Example 9); type: in vivo, male ICR mice; details: once daily for seven days
Experimental: A plurality of groups each consisting of 12 male ICR mice (6-8 weeks old) were implanted intraperitoneally with 2 x 10^6 cells of sarcoma 180. After the next day to the implantation, Y-6430 was administered intraperitoneally or subcutaneously once daily for seven days.

[4] = Acute toxicity in AH-44 carcinoma bearing rats (Experimental Example 11); details: rat, in vivo, Donryu rats with AH-44 carcinoma cells
Experimental: Acute toxicity value when Y-6430 was administered intraperitoneally to male ddn mice was 1,500 mgjkg or more. 'Acute toxicity values when AH-44 carcinoma cells were implanted peritoneally and orally to Donryu rats were both 1,000 mg/kg or more.

[5] = system: L1210 leukemia; assay: L1210 leukemia implanted intraperitoneally, oral or subcutaneous treatment, survival (Experimental Example 4); type: in vivo, female CDF1 mice; details: for Average Survival Time / Life-Prolongation Ratio (%): once daily for seven days
Experimental: (§1) The life-prolongation ratio was calculated by the following scheme (the same scheme is applied to the subsequent experimental examples).
(§2) Life-prolongation Ratio [formula] T : Average survival days of the treated group
(§3) C : Average survival days of the control group
(§4) Animals survived over 30 days or longer were estimated as 30-day survivors, and the cases where T/C equals to or greater than 125% were regarded as effective.
A plurality of groups each consisting of five female CDF1 mice (7-8 weeks old) were respectively implanted intraperitoneally with 10 cells of L1210 leukemia. After the next day of the implantation, the test animals were administered orally or subcutaneously once daily for seven days with Y-6430 or ESCC dissolved in physiological saline, and the average survival days and life-prolongation ratios in each group were calculated.
(§5) All the test animals died of tumor within 30 days.

[6] = system: IMC carcinoma; assay: IMC carcinoma implanted intraperitoneally, survival (Experimental Example 1); type: in vivo, female CDF1 mice; details: for 30-day Survivors / Average Survival Time / Life-Prolongation Ratio (%): once daily for seven days
Experimental: A plurality of groups each consisting of five heads of female CDF1 mice (7-8 weeks old) were implanted intraperitoneally with 10^6 cells of IMC carcinoma. After 24 hours, Y-6430 was respectively administered once daily for seven days, and average survival times, life-prolongation ratios and 30-day survivors were calculated.
as §1, §2, §3, §4

[7] = system: human breast carcinoma MX-1; assay: Human breast carcinoma MX-1 implanted into kidneys, tumor weight change (Experimental Example 10); type: in vivo, male Swiss nude mice; details: 5th day and 9th day, tumor weight change on 11th day, experiment conducted by National Cancer Institute
Experimental: A plurality of groups each consisting of six male Swiss nude mice as test groups and twelve of them as the control group were implanted into the respective kidneys with human breast carcinoma MX-1. Each of the animals was administered subcutaneously with Y-6430 dissolved in physiological saline on the next day to the implantation, 5th day and 9th day. On llth day, each of the weight of carcinoma was measured, and the tumor weight change (%) of the implanted carcinoma was calculated in accordance with the following scheme.

[8] = system: Ehrlich carcinoma; assay: Ehrlich carcinoma implanted subcutaneously, tumor weight (Experimental Example 7); type: in vivo, male ICR mice; details: once daily for seven days, 24 hours after final administration, control 399.5 mg
Experimental: A plurality of groups each consisting of six male ICR mice (7-8 weeks old) were respectively implanted subcutaneously with […] Ehrlich carcinoma. After 24 hours, Y-6430 dissolved in physiological saline was administered intraperitoneally once daily for seven days. 24 hours after the final administration, the test animals were killed by ether anesthesia, and the carcinoma of each test animal was exercised and weighed.

[9] = system: L1210 leukemia; assay: L1210 leukemia implanted intraperitoneally, i.p. treatment, survival (Experimental Example 3); type: in vivo, female CDF1 mice; details: for Average Survival Time / Life-Prolongation Ratio (%): once daily for seven days
Experimental: as §1, §2, §3, §4
A plurality of groups each consisting of five heads of female CDF1 mice (8 weeks old) were respectively implanted intraperitoneally with 10 cells of L1210 leukemia. After the next day of the implantation, Y-6430, ESCC and ESCC ethyl ester (hereinafter referred to ESCC-Et) in physiological saline were respectively administered once daily for seven days intraperitoneally, and the average survival days and life-prolongation ratios in each group were calculated.
as §5

CCOC(=O)[C@@H](N)CSC(=O)NC.Cl [Y-6430, S-methylcarbamoyl-L-cysteine ethyl ester hydrochloride]
Average Survival Time ([1]; 100 mg/kg/day i.p.): 10.5 days
Average Survival Time ([1]; 250 mg/kg/day i.p.): 15.0 days
30-day Survivors ([2]; 50 mg/kg/day i.p.): 0/12
Average Survival Time ([2]; 50 mg/kg/day i.p.): 18.6 days
30-day Survivors ([2]; 100 mg/kg/day i.p.): 6/12
Average Survival Time ([2]; 100 mg/kg/day i.p.): 26.0 days
30-day Survivors ([3]; 50 mg/kg/day i.p.): 0/12
Average Survival Time ([3]; 50 mg/kg/day i.p.): 25.5 days
Number of Dead Animals ([3]; 50 mg/kg/day i.p.): 0/12
30-day Survivors ([3]; 50 mg/kg/day s.c.): 0/12
Average Survival Time ([3]; 50 mg/kg/day s.c.): 21.9 days
Number of Dead Animals ([3]; 50 mg/kg/day s.c.): 0/12
30-day Survivors ([3]; 100 mg/kg/day i.p.): 5/12
Average Survival Time ([3]; 100 mg/kg/day i.p.): 27.7 days
Number of Dead Animals ([3]; 100 mg/kg/day i.p.): 0/12
30-day Survivors ([3]; 100 mg/kg/day s.c.): 0/12
Average Survival Time ([3]; 100 mg/kg/day s.c.): 23.0 days
Number of Dead Animals ([3]; 100 mg/kg/day s.c.): 0/12
LD50 ([4]; ip, peritoneally): ≥ 1000 mg/kg
LD50 ([4]; po, orally): ≥ 1000 mg/kg
Average Survival Time ([5]; 100 mg/kg/day s.c.): 8.2 days
Life-Prolongation Ratio (%) ([5]; 100 mg/kg/day s.c.): 103%
Average Survival Time ([5]; 250 mg/kg/day p.o.): 9.4 days
Life-Prolongation Ratio (%) ([5]; 250 mg/kg/day p.o.): 115%
Average Survival Time ([5]; 250 mg/kg/day s.c.): 9.2 days
Life-Prolongation Ratio (%) ([5]; 250 mg/kg/day s.c.): 115%
Average Survival Time ([5]; 500 mg/kg/day p.o.): 11.4 days
Life-Prolongation Ratio (%) ([5]; 500 mg/kg/day p.o.): 139%
Average Survival Time ([5]; 500 mg/kg/day s.c.): 10.8 days
Life-Prolongation Ratio (%) ([5]; 500 mg/kg/day s.c.): 135%
Average Survival Time ([5]; 1,000 mg/kg/day p.o.): 13.8 days
Life-Prolongation Ratio (%) ([5]; 1,000 mg/kg/day p.o.): 168%
effectiveness against L1210 leukemia ([5]; oral and subcutaneous administration): effective
30-day Survivors ([6]; 100 mg/kg/day i.p.): 0/5
Average Survival Time ([6]; 100 mg/kg/day i.p.): 24.0 days
Life-Prolongation Ratio (%) ([6]; 100 mg/kg/day i.p.): 218%
30-day Survivors ([6]; 100 mg/kg/day p.o.): 0/5
Average Survival Time ([6]; 100 mg/kg/day p.o.): 12.6 days
Life-Prolongation Ratio (%) ([6]; 100 mg/kg/day p.o.): 115%
30-day Survivors ([6]; 250 mg/kg/day i.p.): 1/5
Average Survival Time ([6]; 250 mg/kg/day i.p.): 25.0 days
Life-Prolongation Ratio (%) ([6]; 250 mg/kg/day i.p.): 227%
30-day Survivors ([6]; 250 mg/kg/day p.o.): 0/5
Average Survival Time ([6]; 250 mg/kg/day p.o.): 18.2 days
Life-Prolongation Ratio (%) ([6]; 250 mg/kg/day p.o.): 165%
30-day Survivors ([6]; 500 mg/kg/day i.p.): 1/5
Average Survival Time ([6]; 500 mg/kg/day i.p.): 27.0 days
Life-Prolongation Ratio (%) ([6]; 500 mg/kg/day i.p.): 245%
30-day Survivors ([6]; 500 mg/kg/day p.o.): 0/5
Average Survival Time ([6]; 500 mg/kg/day p.o.): 21.0 days
Life-Prolongation Ratio (%) ([6]; 500 mg/kg/day p.o.): 191%
30-day Survivors ([6]; 1,000 mg/kg/day p.o.): 0/5
Average Survival Time ([6]; 1,000 mg/kg/day p.o.): 23.0 days
Life-Prolongation Ratio (%) ([6]; 1,000 mg/kg/day p.o.): 209%
effectiveness against IMC carcinoma ([6]; administered orally or intraperitoneally, T/C equal to or greater than 125% regarded as effective): effective
Proliferation Ratio (%) ([7]; 225 mg/kg s.c. on next day): -70%
Proliferation Ratio (%) ([7]; 450 mg/kg s.c. on next day): -64%
Proliferation Ratio (%) ([7]; 900 mg/kg s.c. on next day): -65%
Average Tumor Weight ([8]; 50 mg/kg/day i.p.): 194.0 mg
Average Tumor Weight ([8]; 100 mg/kg/day i.p.): 146.6 mg
Average Survival Time ([9]; 50 mg/kg/day i.p.): 8.4 days
Life-Prolongation Ratio (%) ([9]; 50 mg/kg/day i.p.): 105%
Average Survival Time ([9]; 100 mg/kg/day i.p.): 9.4 days
Life-Prolongation Ratio (%) ([9]; 100 mg/kg/day i.p.): 118%
Average Survival Time ([9]; 250 mg/kg/day i.p.): 9.8 days
Life-Prolongation Ratio (%) ([9]; 250 mg/kg/day i.p.): 123%
Average Survival Time ([9]; 500 mg/kg/day i.p.): 12.4 days
Life-Prolongation Ratio (%) ([9]; 500 mg/kg/day i.p.): 155%
effectiveness against L1210 leukemia ([9]; group administered with 500 mg/kg i.p.): effective

— patent EP0139005A1, “ANTITUMOR COMPOSITION, METHOD FOR TREATING TUMOR, AND USE OF THE COMPOSITION FOR TREATING TUMOR” (Yoshitomi Pharmaceutical Industries, Ltd., priority 1982, dated 1984)
